{"source": "patent US20200179369A1", "about": "“TREATMENT OF DIABETIC NEPHROPATHY” (TAKEDA GMBH, priority 2015, published 2020)", "key": {"[1]": {"tested_on": "type 1 collagen α1 chain mRNA", "assay": "TGF-β-induced mRNA expression of type 1 collagen α1 chain in human mesangial cells", "format": "cell-based", "conditions": "in the presence of forskolin 1 μM, TGF-β 3 ng/mL, 24 h", "procedure": "(§1) Human mesangial cells were purchased from DS Pharma Biomedical (US). Compound A was obtained from Takeda GmbH, Konstanz, Germany. Forskolin and dimethyl sulfoxide (DMSO) were purchased from Wako Pure Chemical Industries, Ltd (Japan). Recombinant human TGF-β was purchased from R&D systems (USA).\n(§2) On day 0, human mesangial cells were seeded at a cell density of 2×10^5 cells/well in CSC complete medium (Cell Systems, USA) on type 1 collagen-coated 24-well plate (AGC TECHNO GLASS Co. Ltd., Japan) in an atmosphere of 95% air and 5% CO2 at 37° C. On day 1, the cells were serum starved with CMC medium which is not containing serum and growth factors. On day 2, Compound A at final concentrations of 0.001, 0.01, 0.1, 1 and 10 μM or DMSO (control) was added to the culture medium. […] For the measurement of mRNA levels of type 1 collagen α1 chain and fibronectin, total RNA isolated at 24 hours after forskolin/TGF-β stimulation was used. mRNA expression levels were measured by quantitative real-time RT-PCR methods with TaqMan gene expression master mix and ABI PRISM 9700 (Life Technologies, USA) with target mRNA specific primer and probe sets [Human connective tissue growth factor (Hs1026927_g1); Human plasminogen activator inhibitor-1 (Hs00167155_m1); Human type 1 collagenal chain (Hs00164004_m1); Human fibronectin (HS00365052_m1); Humanglyceraldehyde 3-phosphate dehydrogenase (HS2758991_g1)]. […]"}, "[2]": {"tested_on": "uninephrectomized db/db mice", "assay": "Diabetic nephropathy in uninephrectomized db/db mice, 8 week treatment starting 4 weeks after the uninephrectomy", "format": "in vivo", "conditions": "8 weeks starting 4 weeks after uninephrectomy", "procedure": "Male 5-week-old BKS.Cg-+Lepr^db/+Lepr^db (db/db) mice were purchased from CLEA Japan, Inc. All mice were fed with a standard diet (CE-2, CLEA Japan, Inc.) and tap water ad libitum.\nCompound A was obtained from Takeda GmbH, Konstanz, Germany. Irbesartan was purchased from LKT Laboratories, Inc (USA).\nIn 6 week old male db/db mice an unilateral nephrectomy was performed. Under the anesthesia with isoflurane inhalation, the right kidney was removed from the mice. After 4-week recovery period, blood samples were obtained by the puncture of facial vein and blood level of glycosylated hemoglobin (GHb) was measured by automated HPLC-based GHb analyzer (HLC-723 G8, TOSOH, Japan). After the separation of plasma samples by centrifugation, also plasma levels of glucose (PG) were measured by Autoanalyzer 7180 (Hitachi, Japan). Urine samples were collected for a 8 h time-period using metabolic cages and urine creatinine level was measured by Autoanalyzer 7180. After desaltation of urine samples with PD MiniTrap G-25 column (GE healthcare, UK), urinary levels of albumin were measured by ELISA, and urinary albumin/creatinine ratio (UACR) was calculated.\nCompound A (1, 3 and 10 mg/kg, QD), roflumilast (3 mg/kg, QD) and irbesartan (50 mg/kg, QD) were suspended in 0.5% methyl cellulose solution and orally administered to mice for 8 weeks starting 4 weeks after the uninephrectomy.\nAt the end of the 8 weeks once daily administration blood, plasma and urine samples were obtained according to the same methods as described above. GHb, PG, urinary creatinine and albumin were measured and UACR was calculated. Body weight (BW) was measured every week during the treatment.\nFor evaluation of the effects of Compound A, statistical differences between vehicle- and Compound A treated groups were analyzed with two-tailed Williams' test for PG and BW and two-tailed Shirley-Williams' test for UACR and GHb. The P-values less than 0.05 were considered statistically significant in two-tailed Williams' test or Shirley-Williams' test.\nFor roflumilast and irbesartan, statistical differences between vehicle- and compounds-treated groups were analyzed with Student's t-test for GHb, PG and BW and Welch test for UACR. The P-values less than 0.05 were considered statistically significant in Student's t-test and Welch test."}, "[3]": {"tested_on": "plasminogen activator inhibitor-1 (PAI-1) mRNA", "assay": "TGF-β-induced mRNA expression of plasminogen activator inhibitor-1 (PAI-1) in human mesangial cells", "format": "cell-based", "conditions": "0.001-10 μM with forskolin 1 μM and TGF-β 3 ng/mL, 6 h", "procedure": "as §1, §2"}, "[4]": {"tested_on": "human mesangial cells", "assay": "Intracellular cAMP level in human mesangial cells (AlphaScreen cAMP functional assay)", "format": "cell-based", "conditions": "co-treatment with forskolin 1 μM", "procedure": "as §1\nOn day 0, human mesangial cells were seeded at a cell density of 2×10^5 cells/well in CSC complete medium (Cell Systems, USA) on type 1 collagen-coated 24-well plate (AGC TECHNO GLASS Co. Ltd., Japan) in an atmosphere of 95% air and 5% CO2 at 37° C. On day 1, the cells were serum starved with CSC medium which is not containing serum and growth factors. On day 2, Compound A at final concentrations of 0.001, 0.01, 0.1, 1 and 10 μM or DMSO (control) was added to the culture medium. […]\nFor evaluation of the effects of Compound A on intracellular cAMP level, statistical differences between DMSO-treatment and Compound A treatment groups were analyzed with one-tailed Williams' test. For the evaluation of the effects of Compound A on mRNA expression levels, statistical differences between forskolin/TGF-β-treatment and Compound A treatment groups were analyzed with one-tailed Williams' test. To confirm the mRNA induction by TGF-β, mRNA expression levels between untreated and TGF-β-treated group were analyzed by Students t-test. […]"}}, "data": [{"compound": "CCOc1cc2c(cc1OC)C(c1ccc(=O)n(C)c1)=N[C@@H]1CC[C@@H](O)C[C@H]21", "note": "[Compound A, 5-((2R,4aR,10bR)-9-Ethoxy-2-hydroxy-8-methoxy-1,2,3,4,4a,10b-hexahydro-phenanthridin-6-yl)1-methyl-1H-pyridin-2-one]", "values": [{"measurement": "concentration at which the inhibitory effect on mRNA expression of type 1 collagen α1 chain was further enhanced", "setting": "[1]", "value": "≥ 0.1", "unit": "µM"}, {"measurement": "effect on increase of urinary albumin/creatinine ratio (UACR)", "setting": "[2]; 1 mg/kg QD oral", "value": "significantly suppressed the increase of UACR"}, {"measurement": "effect on increase of urinary albumin/creatinine ratio (UACR)", "setting": "[2]; 3 mg/kg QD oral", "value": "almost completely inhibited the increase of UACR"}, {"measurement": "effect on body weight", "setting": "[2]; 10 mg/kg QD oral", "value": "slightly, but statistically significantly, suppressed the increase of body weight"}, {"measurement": "effect on increase of urinary albumin/creatinine ratio (UACR)", "setting": "[2]; 10 mg/kg QD oral", "value": "almost completely inhibited the increase of UACR"}, {"measurement": "effect on blood level of glycosylated hemoglobin (GHb)", "setting": "[2]; 1, 3 and 10 mg/kg QD oral", "value": "significantly inhibited the elevation of GHb and PG in a dose-dependent manner"}, {"measurement": "effect on plasma levels of glucose (PG)", "setting": "[2]; 1, 3 and 10 mg/kg QD oral", "value": "significantly inhibited the elevation of GHb and PG in a dose-dependent manner"}, {"measurement": "effect on TGF-β-induced mRNA expression of PAI-1", "setting": "[3]", "value": "further suppressed by the treatment with Compound A in a concentration-dependent manner"}, {"measurement": "effect on intracellular cAMP accumulation", "setting": "[4]; 0.001-10 μM", "value": "further enhanced intracellular cAMP accumulation in a concentration dependent manner"}, {"measurement": "concentration at which the significant effect on intracellular cAMP accumulation was observed", "setting": "[4]", "value": "≥ 0.1", "unit": "µM"}]}]}
